In US8653000B2, “Imine substituted 2,4-diaryl-pyrroline derivatives as pesticides” (BASF SE, priority 2010, dated 2014):

Key:
Assay type in all cases: in vivo
[1] = test system: Colorado Potato Beetle (Leptinotarsa Decemlineata); assay: Colorado potato beetle test on sprayed eggplant foliage; conditions: at 10 ppm, 4 days after treatment
Experimental: B.13 Colorado Potato Beetle (Leptinotarsa Decemlineata)
(§1) The active compounds were formulated in cyclohexanone as a 10,000 ppm solution supplied in tubes. The tubes were inserted into an automated electrostatic sprayer equipped with an atomizing nozzle and they served as stock solutions for which lower dilutions were made in 50% acetone:50% water (v/v). A nonionic surfactant (Kinetic®) was included in the solution at a volume of 0.01% (v/v).
Eggplants were grown 2 plants to a pot and were selected for treatment at the 1st true leaf stage. Test solutions were sprayed onto the foliage by an automated electrostatic plant sprayer equipped with an atomizing spray nozzle. The plants were dried in the sprayer fume hood and then removed from the sprayer. The treated foliage was then cut and removed from the pot and placed in a 5-inch Petri dish lined with moistened filter paper. Five beetle larvae were introduced into each Petri dish and the dish was covered by a Petri dish lid. Petri dishes were maintained in a growth room at 25° C. and 20-40% relative humidity for 4 days, avoiding direct exposure to fluorescent light (24 hour photoperiod) to prevent trapping of heat inside the dishes. Mortality and reduced feeding were assessed 4 days after treatment, compared to untreated control plants.

[2] = test system: Silverleaf Whitefly (Bemisia Argentifolii); assay: Silverleaf whitefly spray test on cotton plants; conditions: at 300 ppm; cotton plants sprayed; 3 days after treatment
Excerpt: B.8 Silverleaf Whitefly (Bemisia Argentifolii)
as §1, with “(Kinetic)” for “(Kinetic®)”
Cotton plants at the cotyledon stage (one plant per pot) were sprayed by an automated electrostatic plant sprayer equipped with an atomizing spray nozzle. The plants were dried in the sprayer fume hood and then removed from the sprayer. Each pot was placed into a plastic cup and about 10 to 12 whitefly adults (approximately 3-5 days old) were introduced. The insects were collected using an aspirator and a nontoxic Tygon® tubing connected to a barrier pipette tip. The tip, containing the collected insects, was then gently inserted into the soil containing the treated plant, allowing insects to crawl out of the tip to reach the foliage for feeding. Cups were covered with a reusable screened lid. […] Mortality was assessed 3 days after treatment, compared to untreated control plants.

[3] = test system: Cowpea Aphid (Aphis Craccivora); assay: Cowpea aphid spray test on potted cowpea plants; conditions: cowpea plants sprayed, population reduction assessed after 24, 72 and 120 hours, read-out: mortality in comparison with untreated controls
Experimental: B.2 Cowpea Aphid (Aphis Craccivora)
Potted cowpea plants colonized with approximately 100-150 aphids of various stages were sprayed after the pest population had been recorded. Population reduction was assessed after 24, 72, and 120 hours.

[4] = test system: Diamond Back Moth (Plutella Xylostella); assay: Diamond back moth leaf-dip test on Chinese cabbage; conditions: foliar, mortality recorded 24, 72 and 120 hours after treatment, read-out: mortality in comparison with untreated controls
Experimental: B.3 Diamond Back Moth (Plutella Xylostella)
Leaves of Chinese cabbage were dipped in test solution and air-dried. Treated leaves were placed in petri dished lined with moist filter paper. Mortality was recorded 24, 72, and 120 hours after treatment.

[5] = test system: green peach aphid (Myzus persicae); assay: Green peach aphid systemic test, artificial diet in 96-well plates; conditions: 72 h, 3 days, read-out: mortality in comparison with untreated controls
Excerpt: B.4 Green Peach Aphid (Myzus Persicae)
For evaluating control of green peach aphid (Myzus persicae) through systemic means the test unit consisted of 96-well-microtiter plates containing liquid artificial diet under an artificial membrane.
The compounds were formulated using a solution containing 75% v/v water and 25% v/v DMSO. Different concentrations of formulated compounds were pipetted into the aphid diet, using a custom built pipetter, at two replications.
After application, 5-8 adult aphids were placed on the artificial membrane inside the microtiter plate wells. The aphids were then allowed to suck on the treated aphid diet and incubated at about 23±1° C. and about 50±5% relative humidity for 3 days. Aphid mortality and fecundity was then visually assessed.

[6] = test system: Mediterranean fruitfly (Ceratitis capitata); assay: Mediterranean fruitfly microtiter plate test on insect diet with eggs; conditions: 120 h, sprayed onto insect diet, egg and larval mortality after 5 days, read-out: mortality in comparison with untreated controls
Experimental: B.5 Mediterranean Fruitfly (Ceratitis Capitata)
For evaluating control of Mediterranean fruitfly (Ceratitis capitata) the test unit consisted of microtiter plates containing an insect diet and 50-80 C. capitata eggs.
(§2) The compounds were formulated using a solution containing 75% v/v water and 25% v/v DMSO. Different concentrations of formulated compounds were sprayed onto the insect diet at 5 μl, using a custom built micro atomizer, at two replications.
(§3) After application, microtiter plates were incubated at about 28±1° C. and about 80±5% relative humidity for 5 days. Egg and larval mortality was then visually assessed.

[7] = test system: Orchid Thrips (Dichromothrips corbetti); assay: Orchid thrips floral-immersion test; conditions: 96 h, after 4 days, read-out: mortality in comparison with untreated controls
Experimental: B.6 Orchid Thrips (Dichromothrips corbetti)
Dichromothrips corbettiadults used for bioassay were obtained from a colony maintained continuously under laboratory conditions. For testing purposes, the test compound was diluted to a concentration of 500 ppm (wt compound: vol diluent) in a 1:1 mixture of acetone:water (vol:vol), plus 0.01% vol/vol Kinetic® surfactant.
Thrips potency of each compound was evaluated by using a floral-immersion technique. Plastic petri dishes were used as test arenas. All petals of individual, intact or chid flowers were dipped into treatment solution and allowed to dry. Treated flowers were placed into individual petri dishes along with 10-15 adult thrips. The petri dishes were then covered with lids. All test arenas were held under continuous light and a temperature of about 28° C. for duration of the assay. After 4 days, the numbers of live thrips were counted on each flower, and along inner walls of each petri dish. The level of thrips mortality was extrapolated from pre-treatment thrips numbers.

[8] = test system: Southern Armyworm (Spodoptera Eridania); assay: Southern armyworm spray test on lima bean plants; conditions: foliar, 96 h, lima bean foliage sprayed, 4 days after treatment, read-out: mortality in comparison with untreated controls
Experimental: B.9 Southern Armyworm (Spodoptera Eridania)
as §1
Lima bean plants (variety Sieva) were grown 2 plants to a pot and selected for treatment at the 1st true leaf stage. Test solutions were sprayed onto the foliage by an automated electrostatic plant sprayer equipped with an atomizing spray nozzle. The plants were dried in the sprayer fume hood and then removed from the sprayer. Each pot was placed into perforated plastic bags with a zip closure. About 10 to 11 armyworm larvae were placed into the bag and the bags zipped closed. Test plants were maintained in a growth room at about 25° C. and about 20-40% relative humidity for 4 days, avoiding direct exposure to fluorescent light (24 hour photoperiod) to prevent trapping of heat inside the bags. Mortality and reduced feeding was assessed 4 days after treatment, compared to untreated control plants.

[9] = test system: vetch aphid (Megoura viciae); assay: Vetch aphid test on broad bean leaf disks in 24-well plates; conditions: foliar, 120 h, sprayed onto leaf disks, 5 days, read-out: mortality in comparison with untreated controls
Experimental: B.10 Vetch Aphid (Megoura Viciae)
For evaluating control of vetch aphid (Megoura viciae) through contact or systemic means the test unit consisted of 24-well-microtiter plates containing broad bean leaf disks.
The compounds were formulated using a solution containing 75% v/v water and 25% v/v DMSO. Different concentrations of formulated compounds were sprayed onto the leaf disks at 2.5 μl, using a custom built micro atomizer, at two replications.
After application, the leaf disks were air-dried and 5-8 adult aphids placed on the leaf disks inside the microtiter plate wells. The aphids were then allowed to suck on the treated leaf disks and incubated at about 23±1° C. and about 50±5% relative humidity for 5 days. Aphid mortality and fecundity was then visually assessed.

[10] = test system: tobacco budworm (Heliothis virescens); assay: Tobacco budworm microtiter plate test on insect diet with eggs; conditions: 120 h, sprayed onto insect diet, egg and larval mortality after 5 days, read-out: mortality in comparison with untreated controls
Experimental: B.11 Tobacco Budworm (Heliothis Virescens) I
as §2, with “For evaluating control of tobacco budworm (Heliothis virescens) the test unit consisted of 96-well-microtiter plates containing an insect diet and 15-25 H. virescens eggs. The” for “The”, “at 10” for “at 5”
as §3

[11] = test system: boll weevil (Anthonomus grandis); assay: Boll weevil microtiter plate test on insect diet with eggs; conditions: 120 h, sprayed onto insect diet, egg and larval mortality after 5 days, read-out: mortality in comparison with untreated controls
Experimental: B.12 Boll Weevil (Anthonomus Grandis)
For evaluating control of boll weevil (Anthonomus grandis) the test unit consisted of 24-well-microtiter plates containing an insect diet and 20-30 A. grandis eggs.
The compounds were formulated using a solution containing 75% v/v water and 25% v/v DMSO. Different concentrations of formulated compounds were sprayed onto the insect diet at 20 μl, using a custom built micro atomizer, at two replications. After application, microtiter plates were incubated at about 23±1° C. and about 50±5% relative humidity for 5 days. Egg and larval mortality was then visually assessed.

[12] = test system: Red Spider Mite (Tetranychus Kanzawai); assay: Red spider mite spray test on potted cowpea beans; conditions: cowpea beans sprayed, after 72 h, read-out: mortality in comparison with untreated controls
Experimental: B.14 Red Spider Mite (Tetranychus Kanzawai)
The active compound was dissolved at the desired concentration in a mixture of 1:1 (v/v) distilled water:acetone. A surfactant (Alkamuls® EL 620) was added at the rate of 0.1% (v/v).
Potted cowpea beans of 7-10 days of age were cleaned with tap water and sprayed with 5 ml of the test solution using air driven hand atomizer. The treated plants were allowed to air dry and afterwards inculated with 20 or more mites by clipping a cassaya leaf section with known mite population. Treated plants were placed inside a holding room at about 25-27° C. and about 50-60% relative humidity.
Mortality was determined by counting the live mites 72 HAT. Percent mortality was assessed after 72 h.

CNC(=O)NN=Cc1ccc(C2=NCC(c3cc(Cl)cc(Cl)c3)(C(F)(F)F)C2)cc1Cl (racemic) [Compound 2-4]
mortality in comparison with untreated controls [1]: at least 75%

O=C(NCC(F)(F)F)NN=Cc1ccc(C2=NCC(c3cc(Cl)cc(Cl)c3)(C(F)(F)F)C2)cc1Cl (racemic) [Compound 2-3]
mortality in comparison with untreated controls [2]: at least 75%

Cc1cc(C2=NCC(c3cc(Cl)cc(Cl)c3)(C(F)(F)F)C2)ccc1/C=N/NC(=O)NCC(F)(F)F (stereo not drawn) [Compound 1-3, 1-[(E)-[4-[3-(3,5-dichlorophenyl)-3-(trifluoromethyl)-2,4-dihydropyrrol-5-yl]-2-methyl-phenyl]methyleneamino]-3-(2,2,2-trifluoroethyl)urea]
mortality at 500 ppm [3]: ≥ 75% | mortality at 500 ppm [4]: ≥ 75% | mortality at 2500 ppm [5]: ≥ 75% | mortality at 2500 ppm [6]: ≥ 75% | mortality at 500 ppm [7]: ≥ 75% | mortality at 1 ppm [8]: ≥ 75% | mortality at 2500 ppm [9]: ≥ 75% | mortality at 2500 ppm [10]: ≥ 75% | mortality at 2500 ppm [11]: ≥ 75% | mortality at 500 ppm [12]: ≥ 75%
